From PubChem BioAssay AID330 (DTP/NCI, 2004)
“And” between values parts separate entries of the source, which are not always exact repeats. Equal values may be shown once. Toxic doses and inconclusive results are not listed. Rule for the calls: active = survival T/C of 150% or more; inactive = T/C below 125% in these data.

Tested on: P388 leukemia ip, CD2F1 mice, survival T/C
Assay: NCI In Vivo Anticancer Drug Screen. Data for tumor model P388 Leukemia (intraperitoneal) in CD2F1 (CDF1) mice
Settings: endpoint: median survival time, higher = longer survival
In short: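 Mice carrying the transplanted tumor received test compound or vehicle. Survival was recorded in each group, and the value is the treated-group measurement divided by that of the vehicle-treated control group.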

[1] = dose: 50.0 mg/kg/injection, schedule: Q01DX009 (ip), vehicle: suspension in saline
[2] = dose: 100.0 mg/kg/injection, schedule: Q01DX009 (ip), vehicle: suspension in saline
[3] = dose: 200.0 mg/kg/injection, schedule: Q01DX009 (ip), vehicle: suspension in saline
[4] = dose: 50.0 mg/kg/injection, schedule: Q01DX005 (ip), vehicle: Klucel (hydroxypropylcellulose) (HPC)
[5] = dose: 50.0 mg/kg/injection, schedule: Q01DX005 (ip), vehicle: saline with Tween-80
[6] = dose: 100.0 mg/kg/injection, schedule: Q01DX005 (ip), vehicle: Klucel (hydroxypropylcellulose) (HPC)
[7] = dose: 100.0 mg/kg/injection, schedule: Q01DX005 (ip), vehicle: saline with Tween-80
[8] = dose: 200.0 mg/kg/injection, schedule: Q01DX005 (ip), vehicle: saline with Tween-80
[9] = dose: 12.5 mg/kg/injection, schedule: Q01DX009 (ip), vehicle: Klucel (hydroxypropylcellulose) (HPC)
[10] = dose: 25.0 mg/kg/injection, schedule: Q01DX009 (ip), vehicle: Klucel (hydroxypropylcellulose) (HPC)
[11] = dose: 12.5 mg/kg/injection, schedule: Q04DX003 (ip), vehicle: saline with Tween-80
[12] = dose: 25.0 mg/kg/injection, schedule: Q04DX003 (ip), vehicle: saline with Tween-80
[13] = dose: 60.0 mg/kg/injection, schedule: Q01DX005 (ip), vehicle: saline with Tween-80
[14] = dose: 120.0 mg/kg/injection, schedule: Q01DX005 (ip), vehicle: saline with Tween-80
[15] = dose: 240.0 mg/kg/injection, schedule: Q01DX005 (ip), vehicle: saline with Tween-80

Measured: T/C

COC(=O)N1C(C)=Cc2ccccc2C1C#N (stereo unspecified)
inactive: [1] 100 % of control | [2] 98 % of control | [3] 95 % of control

Cc1c([O-])[n+]2cccc3ccn(c1=O)c32
inactive: dose: 60.0 mg/kg/injection, schedule: Q01DX005 (ip), vehicle: Klucel (hydroxypropylcellulose) (HPC) 97 % of control | dose: 120.0 mg/kg/injection, schedule: Q01DX005 (ip), vehicle: Klucel (hydroxypropylcellulose) (HPC) 100 % of control | dose: 240.0 mg/kg/injection, schedule: Q01DX005 (ip), vehicle: Klucel (hydroxypropylcellulose) (HPC) 94 % of control

CCC(C)(C)NCCCCCNc1cc(OC)cc2cccnc12
inactive: [4] 94 % of control | [5] 95 % of control | [6] 101 % of control | [7] 95 % of control | [8] 91 % of control

CCOC(=O)NNS(=O)(=O)CCC(N)C(=O)O (stereo unspecified)
inactive: dose: 12.5 mg/kg/injection, schedule: Q01DX009 (ip), vehicle: water 98 % of control | dose: 25.0 mg/kg/injection, schedule: Q01DX009 (ip), vehicle: water 88 % of control and 95 % of control | dose: 50.0 mg/kg/injection, schedule: Q01DX009 (ip), vehicle: water 87 % of control and 90 % of control | dose: 100.0 mg/kg/injection, schedule: Q01DX009 (ip), vehicle: water 93 % of control | dose: 200.0 mg/kg/injection, schedule: Q01DX009 (ip), vehicle: water 109 % of control and 86 % of control | dose: 400.0 mg/kg/injection, schedule: Q01DX009 (ip), vehicle: water 111 % of control

Cc1cccc(C(=O)N2C(=O)Cc3ccccc32)c1
inactive: dose: 100.0 mg/kg/injection, schedule: Q01DX001 (ip), vehicle: Klucel (hydroxypropylcellulose) (HPC) 99 % of control | dose: 200.0 mg/kg/injection, schedule: Q01DX001 (ip), vehicle: Klucel (hydroxypropylcellulose) (HPC) 94 % of control

COc1cc(C2=N/C(=C/c3cccs3)C(=O)O2)cc(OC)c1OC
inactive: dose: 6.25 mg/kg/injection, schedule: Q01DX009 (ip), vehicle: Klucel (hydroxypropylcellulose) (HPC) 98 % of control | [9] 108 % of control | [10] 106 % of control

C/C(=C1\N=C(c2ccccc2)OC1=O)c1ccccc1
inactive: [5] 96 % of control | [7] 92 % of control | [8] 95 % of control

CC1CCC(C(C)C)C(OC(=O)c2cc[n+](C)cc2)C1 (stereo unspecified)
inactive: [4] 107 % of control | [6] 98 % of control

CC(=O)OC1CC2C(=[N+]=[N-])C(=O)C1(C)C2(C)C (stereo unspecified)
inactive: [5] 108 % of control | [7] 107 % of control | [8] 108 % of control

NC(=S)N/N=C/c1ccnnc1
inactive: dose: 3.12 mg/kg/injection, schedule: Q04DX003 (ip), vehicle: saline 104 % of control and 97 % of control | dose: 6.25 mg/kg/injection, schedule: Q04DX003 (ip), vehicle: saline 100 % of control and 97 % of control | dose: 12.5 mg/kg/injection, schedule: Q04DX003 (ip), vehicle: saline 104 % of control and 108 % of control | dose: 25.0 mg/kg/injection, schedule: Q04DX003 (ip), vehicle: saline 98 % of control and 100 % of control | dose: 25.0 mg/kg/injection, schedule: Q04DX003 (ip), vehicle: suspension in saline 99 % of control | dose: 100.0 mg/kg/injection, schedule: Q04DX003 (ip), vehicle: saline 103 % of control | dose: 200.0 mg/kg/injection, schedule: Q04DX003 (ip), vehicle: saline 97 % of control | dose: 400.0 mg/kg/injection, schedule: Q04DX003 (ip), vehicle: saline 97 % of control

CC(=N/NC(=S)NCCN1CCCCC1)/C(C)=N\NC(=S)NCCN1CCCCC1
inactive: dose: 0.78 mg/kg/injection, schedule: Q01DX009 (ip), vehicle: saline 106 % of control | dose: 1.56 mg/kg/injection, schedule: Q01DX009 (ip), vehicle: saline 94 % of control | dose: 3.13 mg/kg/injection, schedule: Q01DX009 (ip), vehicle: saline 97 % of control | dose: 6.25 mg/kg/injection, schedule: Q01DX009 (ip), vehicle: saline 103 % of control | [11] 108 % of control | [12] 101 % of control

S=C(Nc1ccc2c(c1)OCO2)SCc1ccc(Cl)c(Cl)c1
inactive: [9] 91 % of control | [10] 105 % of control | dose: 50.0 mg/kg/injection, schedule: Q01DX009 (ip), vehicle: Klucel (hydroxypropylcellulose) (HPC) 107 % of control | dose: 50.0 mg/kg/injection, schedule: Q01DX009 (ip), vehicle: saline 106 % of control | [1] 103 % of control | dose: 100.0 mg/kg/injection, schedule: Q01DX009 (ip), vehicle: saline 108 % of control | [2] 93 % of control | dose: 200.0 mg/kg/injection, schedule: Q01DX009 (ip), vehicle: saline 118 % of control | [3] 98 % of control

Cc1ccc2nc(CC(=O)c3cccnc3)c(CC(=O)c3cccnc3)nc2c1
inactive: [13] 93 % of control | [14] 100 % of control | [15] 100 % of control

CC(=O)Nc1cccc(/C=C/C=C/c2ccc([N+](=O)[O-])cc2)c1
inactive: dose: 37.5 mg/kg/injection, schedule: Q01DX001 (ip), vehicle: saline with Tween-80 100 % of control | dose: 75.0 mg/kg/injection, schedule: Q01DX001 (ip), vehicle: saline with Tween-80 95 % of control | dose: 150.0 mg/kg/injection, schedule: Q01DX001 (ip), vehicle: saline with Tween-80 90 % of control

CCC12CCCN1CCc1c([nH]c3ccccc13)C2=O (stereo unspecified)
inactive: dose: 100.0 mg/kg/injection, schedule: Q04DX002 (ip), vehicle: suspension in saline 105 % of control | dose: 200.0 mg/kg/injection, schedule: Q04DX002 (ip), vehicle: suspension in saline 99 % of control

c1ccc(C[n+]2ccc3ccccc3c2)cc1
inactive: dose: 6.25 mg/kg/injection, schedule: Q04DX003 (ip), vehicle: saline with Tween-80 101 % of control | [11] 100 % of control | [12] 101 % of control

CCOC(=O)C1=C(C)N(C)C(C)=C(C(=O)OCC)C1
inactive: [13] 108 % of control | [14] 100 % of control | [15] 101 % of control

Nc1ccccc1NC(=O)c1nc2ccccc2[nH]1
inactive: dose: 100.0 mg/kg/injection, schedule: Q04DX003 (ip), vehicle: Klucel (hydroxypropylcellulose) (HPC) 106 % of control | dose: 200.0 mg/kg/injection, schedule: Q04DX003 (ip), vehicle: Klucel (hydroxypropylcellulose) (HPC) 97 % of control | dose: 400.0 mg/kg/injection, schedule: Q04DX003 (ip), vehicle: Klucel (hydroxypropylcellulose) (HPC) 97 % of control

COc1ccc(C(Nc2ncccn2)c2cc(C(C)(C)C)cc(C(C)(C)C)c2O)cc1 (stereo unspecified)
inactive: dose: 50.0 mg/kg/injection, schedule: Q01DX005 (ip), vehicle: distilled water + alcohol 101 % of control | dose: 100.0 mg/kg/injection, schedule: Q01DX005 (ip), vehicle: distilled water + alcohol 101 % of control | dose: 200.0 mg/kg/injection, schedule: Q01DX005 (ip), vehicle: distilled water + alcohol 97 % of control

Cn1ncc2c(N)cc(=O)[nH]c21
inactive: dose: 100.0 mg/kg/injection, schedule: Q01DX001 (ip), vehicle: saline with Tween-80 101 % of control | dose: 200.0 mg/kg/injection, schedule: Q01DX001 (ip), vehicle: saline with Tween-80 94 % of control | dose: 400.0 mg/kg/injection, schedule: Q01DX001 (ip), vehicle: saline with Tween-80 104 % of control
